# Source: the supplement of paper PMC10307832
# Assays:
# Assay in all cases: relative viability (nuclei count vs DMSO), 5 days (fraction); higher = more cells survive
# Alisertib + Phenformin = compound: COc1cc(Nc2ncc3c(n2)-c2ccc(Cl)cc2C(c2c(F)cccc2OC)=NC3)ccc1C(=O)O [Alisertib] + N=C(N)NC(=N)NCCc1ccccc1 [Phenformin] (partner 250 µM)
# Method in brief: (§1)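 Lung cancer cell lines, seeded in 1536-well plates, were treated the following day by pin tool with a single drug or with five library-drug doses (not always all listed) in √10 steps on top of a fixed anchor-drug dose. Cells were fixed and nuclei stained in one step after 5 days, and nuclei were counted. Relative viability is the nuclei count for treated wells divided by that for vehicle wells, reported as medians of duplicate plates.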
# Alisertib + OSI-027 = compound: COc1cc(Nc2ncc3c(n2)-c2ccc(Cl)cc2C(c2c(F)cccc2OC)=NC3)ccc1C(=O)O [Alisertib] + COc1cccc2cc(-c3nc([C@H]4CC[C@H](C(=O)O)CC4)n4ncnc(N)c34)[nH]c12 [OSI-027] (partner 0.5 µM)
# Method in brief: as §1
# Alisertib + Trametinib = compound: COc1cc(Nc2ncc3c(n2)-c2ccc(Cl)cc2C(c2c(F)cccc2OC)=NC3)ccc1C(=O)O [Alisertib] + CC(=O)Nc1cccc(-n2c(=O)n(C3CC3)c(=O)c3c(Nc4ccc(I)cc4F)n(C)c(=O)c(C)c32)c1 [Trametinib] (partner 0.02 µM)
# Method in brief: as §1
# Alisertib + Crizotinib = compound: COc1cc(Nc2ncc3c(n2)-c2ccc(Cl)cc2C(c2c(F)cccc2OC)=NC3)ccc1C(=O)O [Alisertib] + C[C@@H](Oc1cc(-c2cnn(C3CCNCC3)c2)cnc1N)c1c(Cl)ccc(F)c1Cl [Crizotinib] (partner 1 µM)
# Method in brief: as §1
Cell Line,relative viability (Alisertib + Phenformin; first compound 0.005 µM),relative viability (Alisertib + Phenformin; first compound 0.01581 µM),relative viability (Alisertib + Phenformin; first compound 0.05 µM),relative viability (Alisertib + Phenformin; first compound 0.1581 µM),relative viability (Alisertib + Phenformin; first compound 0.5 µM),relative viability (Alisertib + OSI-027; first compound 0.005 µM),relative viability (Alisertib + OSI-027; first compound 0.01581 µM),relative viability (Alisertib + OSI-027; first compound 0.05 µM),relative viability (Alisertib + OSI-027; first compound 0.1581 µM),relative viability (Alisertib + OSI-027; first compound 0.5 µM),relative viability (Alisertib + Trametinib; first compound 0.005 µM),relative viability (Alisertib + Trametinib; first compound 0.01581 µM),relative viability (Alisertib + Trametinib; first compound 0.05 µM),relative viability (Alisertib + Trametinib; first compound 0.1581 µM),relative viability (Alisertib + Trametinib; first compound 0.5 µM),relative viability (Alisertib + Crizotinib; first compound 0.005 µM),relative viability (Alisertib + Crizotinib; first compound 0.01581 µM),relative viability (Alisertib + Crizotinib; first compound 0.05 µM),relative viability (Alisertib + Crizotinib; first compound 0.1581 µM),relative viability (Alisertib + Crizotinib; first compound 0.5 µM)
NCI-H1734,0.314,0.298,0.256,0.221,0.176,0.562,0.436,0.296,0.277,0.18,0.678,0.73,0.381,0.238,0.163,0.669,0.523,0.357,0.227,0.155
NCI-H1755,0.558,0.498,0.517,0.397,0.262,0.638,0.645,0.541,0.341,0.27,0.742,0.712,0.474,0.426,0.305,0.853,0.73,0.415,0.366,0.294
NCI-H1792,0.299,0.253,0.107,0.13,0.0705,0.665,0.622,0.399,0.257,0.178,0.413,0.43,0.291,0.0949,0.072,0.939,0.91,0.543,0.201,0.0858
NCI-H1915,0.309,0.274,0.241,0.229,0.173,0.507,0.473,0.374,0.278,0.238,0.303,0.303,0.241,0.201,0.138,0.777,0.721,0.307,0.317,0.192
NCI-H1944,0.182,0.206,0.193,0.166,0.112,0.375,0.454,0.393,0.196,0.175,0.414,0.408,0.272,0.251,0.173,1.05,1.04,0.504,0.386,0.222
NCI-H1975,0.405,0.375,0.265,0.176,0.137,0.582,0.715,0.431,0.192,0.143,0.303,0.33,0.195,0.241,0.169,0.945,0.728,0.301,0.27,0.193
NCI-H1993,0.455,0.495,0.5,0.511,0.449,0.55,0.46,0.435,0.547,0.512,0.493,0.513,0.442,0.404,0.455,0.564,0.744,0.6,0.573,0.527
NCI-H2009,0.486,0.462,0.312,0.228,0.203,0.497,0.587,0.334,0.233,0.152,0.272,0.28,0.287,0.136,0.138,0.927,0.916,0.453,0.238,0.175
